Results on two compounds are retold here after patent US20240041902A1, “COMPOSITIONS AND METHODS FOR THE TREATMENT OF UROTHELIAL CANCER” (The State of Israel, Ministry of Agriculture & Rural …, priority 2020, published 2024).

The structures appear in SMILES notation. Read-outs that look alike come from different tables or passages of the source.

The subject of assay [1] is T24 cells. Put plainly: Bliss independence drug interaction model on T24 cell viability. It is filed as cell-based, human. The conditions noted are these: for inhibition at 1 µg/mL / inhibition at 2 µg/mL / inhibition at 3 µg/mL / inhibition at 5 µg/mL / inhibition at 7.5 µg/mL / inhibition at 10 µg/mL / inhibition at 12.5 µg/mL: Homo sapiens, T-24. How it is done: Cell proliferation assay—XTT assay was carried out as described in [34], on T24 and HTB-9 cells. 1*10^4 cells/well were seeded in 96-wells plates, methanol was used as a vehicle control at the same concentration as the treatments. Mitomycin-C (MMC) was used as positive control. Cell viability was calculated relative to the vehicle control after subtracting blank.
Analysis of combined drug effects—Drug synergy was determined by the Bliss independence drug interaction model as described in [31], on T24 cells.

Assay [2] has as its system T24 cells. Put plainly: Cell migration scratch assay. As to conditions: sub-lethal: CBD 10, CBC+THC 8.6+1.4, MMC 4, CBC 10, THC 10 μg/mL; vs control. It is filed as cell-based, human. How it is done:
The scratch area, indicated by the cells that migrated to the scratch at time x, was calculated as the percentage of the scratch area at time x from time 0: […]

In the case of `CCCCCc1cc(O)c2c(c1)OC(C)(CCC=C(C)C)C=C2` (centres unmarked) [CBC, Cannabichromene], the “Calculated (expected) value of cell survival inhibition” value is −0.2617 in assay [1] (CBC 3.5 + THC 0 μg/ml); 0.003989 in assay [1] (CBC 5.5 + THC 0 μg/ml); −0.05563 in assay [1] (CBC 7.5 + THC 0 μg/ml); −0.061 in assay [1] (CBC 9.5 + THC 0 μg/ml); 0.2028 in assay [1] (CBC 11.5 + THC 0 μg/ml); 0.5088 in assay [1] (CBC 13.5 + THC 0 μg/ml). The “Delta between observed and experimental values calculated according to Bliss model” value in assay [1] (CBC 3.5 + THC 0 μg/ml) is 1.26E−10; in assay [1] (CBC 5.5 + THC 0 μg/ml), 9.96E−11; in assay [1] (CBC 7.5 + THC 0 μg/ml) it was 1.06E−10; in assay [1] (CBC 9.5 + THC 0 μg/ml), 1.06E−10; in assay [1] (CBC 11.5 + THC 0 μg/ml), 7.97E−11; in assay [1] (CBC 13.5 + THC 0 μg/ml), 4.91E−11. Besides, the “Experimental (observed) value of cell survival inhibition” value is −0.2617 in assay [1] (CBC 3.5 + THC 0 μg/ml); 0.003989 in assay [1] (CBC 5.5 + THC 0 μg/ml); −0.05563 in assay [1] (CBC 7.5 + THC 0 μg/ml); −0.061 in assay [1] (CBC 9.5 + THC 0 μg/ml); 0.2028 in assay [1] (CBC 11.5 + THC 0 μg/ml); 0.5088 in assay [1] (CBC 13.5 + THC 0 μg/ml). Also, the “cell migration into the scratch” value in assay [2] was “reduced cell migration to a lesser extent than treatment with CBC+THC”.
As to `CCCCCc1cc(O)c2c(c1)OC(C)(C)[C@@H]1CCC(C)=C[C@@H]21` [THC, Tetrahydrocannabinol], the “Delta between observed and experimental values calculated according to Bliss model” value in assay [1] (CBC 0 + THC 1 μg/ml), in assay [1] (CBC 0 + THC 2 μg/ml), in assay [1] (CBC 0 + THC 3 μg/ml), in assay [1] (CBC 0 + THC 5 μg/ml), in assay [1] (CBC 0 + THC 7.5 μg/ml) and in assay [1] (CBC 0 + THC 10 μg/ml) was 0 in each case. Further, in assay [1] (CBC 0 + THC 12.5 μg/ml), the “Delta between observed and experimental values calculated according to Bliss model” value is listed as 0. The inhibition at 1 µg/mL in assay [1] (CBC 0 + THC 1 μg/ml, read-out: Calculated (expected) value of cell survival inhibition) was -1.14%; in assay [1] (CBC 0 + THC 1 μg/ml, read-out: Experimental (observed) value of cell survival inhibition), -1.14%. The inhibition at 2 µg/mL in assay [1] (CBC 0 + THC 2 μg/ml, read-out: Calculated (expected) value of cell survival inhibition) was -3.21%; in assay [1] (CBC 0 + THC 2 μg/ml, read-out: Experimental (observed) value of cell survival inhibition), -3.21%. In addition, the inhibition at 3 µg/mL in assay [1] (CBC 0 + THC 3 μg/ml, read-out: Calculated (expected) value of cell survival inhibition) is -1.37%; in assay [1] (CBC 0 + THC 3 μg/ml, read-out: Experimental (observed) value of cell survival inhibition), -1.37%. Moreover, the inhibition at 5 µg/mL was 4.88% in assay [1] (CBC 0 + THC 5 μg/ml, read-out: Calculated (expected) value of cell survival inhibition) and 4.88% in assay [1] (CBC 0 + THC 5 μg/ml, read-out: Experimental (observed) value of cell survival inhibition). Further, the inhibition at 7.5 µg/mL is -1.83% in assay [1] (CBC 0 + THC 7.5 μg/ml, read-out: Calculated (expected) value of cell survival inhibition) and -1.83% in assay [1] (CBC 0 + THC 7.5 μg/ml, read-out: Experimental (observed) value of cell survival inhibition). The inhibition at 10 µg/mL in assay [1] (CBC 0 + THC 10 μg/ml, read-out: Calculated (expected) value of cell survival inhibition) was 4.23%; in assay [1] (CBC 0 + THC 10 μg/ml, read-out: Experimental (observed) value of cell survival inhibition), 4.23%. Moreover, the inhibition at 12.5 µg/mL in assay [1] (CBC 0 + THC 12.5 μg/ml, read-out: Calculated (expected) value of cell survival inhibition) is 27%; in assay [1] (CBC 0 + THC 12.5 μg/ml, read-out: Experimental (observed) value of cell survival inhibition), 27%. Further, in assay [2], the “cell migration into the scratch” value is “had no effect on cell migration”.
